Measured values taken from US7714146B2, “Azulene-oxindole compounds as multiple-kinase inhibitors and useful as anticancer agents” (Industrial Technology Research Institute, priority 2006, dated 2010).

Columns and labels:
Assay type in all cases: biochemical
[1] = biological target: T1, human VEGFR-2 (Val789-Val1356) (Homo sapiens, UniProt P35968); assay: KDR kinase assay (HTScan VEGFR-2 kit, DELFIA); settings: for inhibition at 0.1 µM: compound at 0.1 μM, read-out: KDR 0.1 μM, % of inhibition relative to control; for inhibition at 1 µM: compound at 1 μM, read-out: KDR 1 μM, % of inhibition relative to control
T1 construct: human VEGFR-2 (Val789-Val1356); GST (N); purchased Cell Signaling Technology; host or cells: baculovirus expression system
Description: (§1) Compounds 1-100 were treated for their efficacy in inhibiting activities of FLT-3, c-KIT, KDR/Flk-1, PDGFR-beta, EGFR, and PKC kinases by biochemical DELFIA (Dissociation Enhanced Lanthanide FIA) assays according to the procedure described below. The assays were conducted by, Division of Cell Engineering, Biomedical Engineering Research Laboratories, Industrial Technology Research Institute, Bldg. 53, 195, sec. 4, Chung Hsing Rd. Chutung, Hsinchu, Taiwan 310, R.O.C.
(§2) The KDR assay was conducted following the protocol described in Protocol for HTScan® VEGFR-2 Kinase Assay Kit (Cell Signaling Technology®). The assay was conducted under the following conditions: KDR source: The GST-Kinase fusion protein was produced using a baculovirus expression system with a construct expressing human VEGFR-2 (Val789-Val1356) (GenBank Accession No. NM_002253) with an amino-terminal GST tag, substrate: 1.5 μM Gastrin Precursor Biotinylated Peptide (with Tyr87 as phosphorylation site), vehicle: 1% DMSO, pre-incubation time/temperature: 5 minutes at room temperature, incubation time/temperature: 30 minutes at room temperature, incubation buffer: 60 mM HEPES pH 7.5, 5 mM MgCl2, 5 mM MnCl2, 3 μM Na3VO4, 1.25 mM DTT, 20 μM ATP, and quantitative method: DELFIA® Assay.

[2] = biological target: T2, human c-KIT (Thr544-Val976) (Homo sapiens, UniProt P10721); assay: c-KIT kinase assay (HTScan kit, DELFIA); settings: for inhibition at 0.1 µM: compound at 0.1 μM, read-out: c-KIT 0.1 μM, % of inhibition relative to control; for inhibition at 1 µM: compound at 1 μM, read-out: c-KIT 1 μM, % of inhibition relative to control
T2 construct: human c-KIT (Thr544-Val976); GST (N); purchased Cell Signaling Technology; host or cells: baculovirus expression system
Description: as §1
as §2, with “c-KIT” for “KDR”, “c-KIT” for “VEGFR-2”, “GST-c-KIT” for “GST-Kinase”, “c-KIT (Thr544-Val976)” for “VEGFR-2 (Val789-Val1356) (GenBank Accession No. NM_002253)”, “This biotinylated peptide contains the residues surrounding Tyr-996 of KDR,” for “Gastrin Precursor Biotinylated Peptide (with Tyr87 as phosphorylation site),”

[3] = biological target: T3, human FLT-3 (Arg571-Ser993) (Homo sapiens, UniProt P36888); assay: FLT-3 kinase assay (HTScan kit, DELFIA); settings: for inhibition at 0.1 µM: compound at 0.1 μM, read-out: FLT-3 0.1 μM, % of inhibition relative to control; for inhibition at 1 µM: compound at 1 μM, read-out: FLT-3 1 μM, % of inhibition relative to control
T3 construct: human FLT-3 (Arg571-Ser993); GST (N); purchased Cell Signaling Technology; host or cells: baculovirus expression system
T3 sequence (P36888 571-993): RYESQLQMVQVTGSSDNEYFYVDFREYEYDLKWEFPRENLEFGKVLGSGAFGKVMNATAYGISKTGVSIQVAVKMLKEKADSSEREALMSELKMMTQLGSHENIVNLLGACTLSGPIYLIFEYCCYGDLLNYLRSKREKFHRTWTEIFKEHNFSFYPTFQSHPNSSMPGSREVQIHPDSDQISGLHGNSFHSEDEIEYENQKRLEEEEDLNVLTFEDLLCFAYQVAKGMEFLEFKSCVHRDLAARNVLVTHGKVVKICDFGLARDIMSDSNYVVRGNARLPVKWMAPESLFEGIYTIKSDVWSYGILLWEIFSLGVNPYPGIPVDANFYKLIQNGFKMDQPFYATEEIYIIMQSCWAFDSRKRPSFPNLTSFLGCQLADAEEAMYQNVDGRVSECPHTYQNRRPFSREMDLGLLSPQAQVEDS
Description: as §1
as §2, with “FLT-3” for “KDR”, “FLT-3” for “VEGFR-2”, “GST-kinase” for “GST-Kinase”, “FLT-3 (Arg571-Ser993)” for “VEGFR-2 (Val789-Val1356)”, “accession” for “Accession”, “NM_004119)” for “NM_002253)”

T2 sequence (P10721 544-976): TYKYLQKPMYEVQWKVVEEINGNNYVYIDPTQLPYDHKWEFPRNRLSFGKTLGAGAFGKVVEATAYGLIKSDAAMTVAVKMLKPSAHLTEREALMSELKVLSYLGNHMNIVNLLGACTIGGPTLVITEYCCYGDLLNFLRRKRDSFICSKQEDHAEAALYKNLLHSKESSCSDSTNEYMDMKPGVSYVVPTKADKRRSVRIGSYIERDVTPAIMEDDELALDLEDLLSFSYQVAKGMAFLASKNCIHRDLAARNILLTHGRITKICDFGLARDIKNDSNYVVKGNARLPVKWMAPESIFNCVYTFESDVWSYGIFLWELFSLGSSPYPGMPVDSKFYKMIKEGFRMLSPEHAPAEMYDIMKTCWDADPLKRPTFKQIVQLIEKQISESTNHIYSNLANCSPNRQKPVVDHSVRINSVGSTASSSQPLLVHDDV
T1 sequence (P35968 789-1356): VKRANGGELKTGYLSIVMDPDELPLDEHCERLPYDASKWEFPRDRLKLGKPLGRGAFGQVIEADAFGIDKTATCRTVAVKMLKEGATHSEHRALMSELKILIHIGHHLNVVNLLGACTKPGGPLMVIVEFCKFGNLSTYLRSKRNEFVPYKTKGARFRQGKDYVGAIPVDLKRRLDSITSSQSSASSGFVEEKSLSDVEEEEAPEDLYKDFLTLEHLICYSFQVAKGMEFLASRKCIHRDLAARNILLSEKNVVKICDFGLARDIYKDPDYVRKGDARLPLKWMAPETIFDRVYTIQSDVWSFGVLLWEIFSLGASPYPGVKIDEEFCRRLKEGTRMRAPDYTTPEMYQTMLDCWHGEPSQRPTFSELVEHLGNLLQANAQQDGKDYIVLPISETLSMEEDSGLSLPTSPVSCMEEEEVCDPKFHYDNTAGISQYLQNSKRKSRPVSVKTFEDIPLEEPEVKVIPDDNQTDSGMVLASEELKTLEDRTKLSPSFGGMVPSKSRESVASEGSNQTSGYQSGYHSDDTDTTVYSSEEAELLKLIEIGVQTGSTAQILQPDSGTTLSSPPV

Row | inhibition at 0.1 µM [1] [%] | inhibition at 1 µM [1] [%] | inhibition at 0.1 µM [2] [%] | inhibition at 1 µM [2] [%] | inhibition at 0.1 µM [3] [%] | inhibition at 1 µM [3] [%] | IC50 ([1]; read-out: KDR kinase inhibition (IC50)) [nM] | IC50 ([2]; read-out: c-KIT kinase inhibition (IC50)) [nM] | IC50 ([3]; read-out: FLT-3 kinase inhibition (IC50)) [nM] | Compound
1 | 12.1 | 23.8 | 18 | 18 | 16.5 | 43.9 |  |  |  | CN(C)Cc1cc(/C=C2/C(=O)Nc3ccccc32)c2cccccc1-2 [Compound 58, 3-(3-Dimethylaminomethyl-azulen-1-ylmethylene)-1,3-dihydro-indol-2-one]
2 | 19.9 | 28.5 | 24.2 | 24.2 | 43 | 49.8 |  |  |  | CN(C)Cc1c(/C=C2/C(=O)Nc3ccc(F)cc32)cc2cccccc1-2 [Compound 59, 3-(1-Dimethylaminomethyl-azulen-2-ylmethylene)-5-fluoro-1,3-dihydro-indol-2-one]
3 | 55.6 | 40.3 | 28.3 | 28.3 | 52.6 | 52.8 |  |  |  | O=C1Nc2ccc(F)cc2/C1=C/c1cc(F)c2cccccc1-2 [Compound 60, 5-Fluoro-3-(3-fluoro-azulen-1-ylmethylene)-1,3-dihydro-indol-2-one]
4 | 44.2 | 52.6 | 30.5 | 30.5 | 62.5 | 42.5 |  |  |  | O=C1Nc2ccc(F)cc2/C1=C/c1c(Br)c2cccccc-2c1Br [Compound 61, 3-(1,3-Dibromo-azulen-2-ylmethylene)-5-fluoro-1,3-dihydro-indol-2-one]
5 | 21.9 | 35.1 | 45.6 | 45.6 | 68.3 | 74.9 |  |  |  | O=C1Nc2ccc(F)cc2/C1=C/c1c2cccccc-2oc1=O [Compound 62, 5-Fluoro-3-(2-oxo-2H-cyclohepta[b]furan-3-ylmethylene)-1,3-dihydro-indol-2-one]
6 | 6.7 | 32.2 | 57.1 | 57.1 | 50.5 | 55.7 |  |  |  | Cc1[nH]c(/C=C2\C(=O)Nc3ccc(F)cc32)c2ccc(=O)ccc12 [Compound 63, 1-(5-Fluoro-2-oxo-1,2-dihydro-indol-3-ylidenemethyl)-3-methyl-2H-cyclohepta[c]pyrrol-6-one]
7 | 46.5 | 47.8 | 34.2 | 34.2 | 68.3 | 74.9 |  |  |  | Nc1cc2cccccc-2c1C=C1C(=O)Nc2ccc(F)cc21 [Compound 64, 3-(2-Amino-azulen-1-ylmethylene)-5-fluoro-1,3-dihydro-indol-2-one]
8 | 46.8 | 46.9 | 51.3 | 51.3 | 23.3 | 30.9 |  |  |  | CN(C)Cc1cc(/C=C2/C(=O)Nc3ccc(F)cc32)c2cccccc1-2 [Compound 65, 3-(3-Dimethylaminomethyl-azulen-1-ylmethylene)-5-fluoro-1,3-dihydro-indol-2-one]
9 | 14.8 | 40.6 | 33.7 | 33.7 | 15.8 | 19.6 |  |  |  | Cc1c2cccccc-2c(C)c1/C=C1/C(=O)Nc2ccc(F)cc21 [Compound 66, 3-(1,3-Dimethyl-azulen-2-ylmethylene)-5-fluoro-1,3-dihydro-indol-2-one]
10 |  | 7.4 | 30.2 | 30.2 |  | 14 |  |  |  | CN(C)CCNC(=O)c1cc(/C=C2/C(=O)Nc3ccc(F)cc32)c2cccccc1-2 [Compound 67, 3-(5-Fluoro-2-oxo-1,2-dihydro-indol-3-ylidenemethyl)-azulene-1-carboxylic acid (2-dimethylamino-ethyl)-amide]
11 | 38.6 | 63.8 | 34.4 | 34.4 | 74.3 | 96.8 | 500 | > 1000 | 25.3 | Cc1cc(/C=C2/C(=O)Nc3ccc(F)cc32)c2ccccc(OCCCN(C)C)c1-2 [Compound 68, 3-[4-(3-Dimethylamino-propoxy)-3-methyl-azulen-1-ylmethylene]-5-fluoro-1,3-dihydro-indol-2-one]
12 | 30.2 | 32 | 29.6 | 29.6 | 17.6 | 19.7 |  |  |  | CCc1cc(C=C2C(=O)Nc3ccc(F)cc32)c2cccccc1-2 [Compound 80, 3-(3-Ethyl-azulen-1-ylmethylene)-5-fluoro-1,3-dihydro-indol-2-one]
13 | 33 | 36.6 | 48.7 | 48.7 | 19.1 | 43.5 |  |  |  | CC(C)c1cc(C=C2C(=O)Nc3ccc(F)cc32)c2cccccc1-2 [Compound 81, 5-Fluoro-3-(3-isopropyl-azulen-1-ylmethylene)-1,3-dihydro-indol-2-one]
14 | 17.6 | 18.5 | 30.7 | 30.7 | 12.8 | 13.5 |  |  |  | Cc1cc(C=C2C(=O)Nc3ccc(S(=O)(=O)NCCCN4CCN(C)CC4)cc32)c2cccccc1-2 [Compound 82, 3-(3-Methyl-azulen-1-ylmethylene)-2-oxo-2,3-dihydro-1H-indole-5-sulfonic acid [3-(4-methyl-piperazin-1-yl)-propyl]-amide]
15 | 20.8 | 26.7 | 19.6 | 19.6 | 10.5 | 17.7 |  |  |  | CCc1cc(C=C2C(=O)Nc3ccc(S(=O)(=O)NCCCN4CCN(C)CC4)cc32)c2cccccc1-2 [Compound 83, 3-(3-Ethyl-azulen-1-ylmethylene)-2-oxo-2,3-dihydro-1H-indole-5-sulfonic acid [3-(4-methyl-piperazin-1-yl)-propyl]-amide]
16 |  | 4.4 | 2.4 | 2.4 |  | 2 |  |  |  | CCOC(=O)N1CCC(Nc2ccc3c(c2)/C(=C\c2cc(C)c4c(OCCCN(C)C)ccccc2-4)C(=O)N3)CC1 [Compound 85, 4-{3-[4-(3-Dimethylamino-propoxy)-3-methyl-azulen-1-ylmethylene]-2-oxo-2,3-dihydro-1H-indol-5-ylamino}-piperidine-1-carboxylic acid ethyl ester]
